# Tests used:
# Arabidopsis thaliana = Arabidopsis thaliana root growth inhibition; type: in vivo; conditions: 168 h, root length ratio vs DMSO control, 50 μM compound, lower values indicate shorter root, larger effect, read-out: Arabidopsis (relative to DMSO)
# Protocol: Finally, FIGS. 7a-7o are the photos of the Arabidopsis thaliana plants and the inhibition of their roots growth by the compounds of the present invention. These experiments were conducted as follows. Seeds were washed with 70% ethanol for one minute and then with sterile water. Sterilisation was performed with 50% bleaching solution (3%) and 0.2% Triton x-100 for ten minutes followed by a five-time wash with sterile water. The seeds were placed in six well-plates with half Murashige and Skoog medium (MS; Duchefa, Haarlem, Netherlands), containing 1% sucrose (w/v), pH 5.8. The plates with Arabidopsis thaliana seeds were placed at 4° C. for two days and then transferred for seven days to growth chamber (22±2° C.) at day/light cycles of 16/8 h. The plates were placed vertically. In each plate, a control including 0.1% DMSO in the medium was added. The compounds of the present invention were tested for their herbicidal efficiency by diluting 1000 times a 50 mM stock in DMSO leading to a final concentration of 50 μM with 0.1% DMSO.
# In Tables 1, 2 and 4 above, Arabidopsis root length was measured after addition of 50-μM compound compared with the negative control (DMSO) treatment. Length values indicate the ratio between non-treated plates ([…]) and the length after the addition of 50 uM of each compound. Lower values indicate shorter root length, and consequently, larger effect.
# Roquette = Roquette assay spray; type: in vivo
# [1] = tested on: E. coli lacking the endogenic MetB CGS gene, transformed to express the CGS from Arabidopsis; test: Growth of engineered E. coli expressing Arabidopsis CGS in M9 minimal media, with and without methionine; type: cell-based; conditions: for E. coli Assay LE395 (0-5): score 0-5, growth of E. coli with Arabidopsis CGS gene in M9 minimal media; for E. coli specificity (MOA): score, growth with vs without external methionine (40 mg/L)
# Protocol: In addition to the direct binding evaluation, specific assay to test the compounds activity and specificity were also developed. In this assay, E. coli cells, lacking the endogenic MetB CGS gene and transformed to express the CGS from Arabidopsis, were used. These cells were grown on M9 minimal media with and without external methionine supplemented to the cells, in the presence of the compounds of the embodiments. These selected compounds of the embodiments, capable of inhibiting the cell growth on M9, but incapable of affecting the cell growth when supplemented with methionine, were validated as methionine-pathway specific inhibitors.
# In this assay, Methionine auxotroph E. coli mutant was transformed with PQE-30 vector containing the Arabidopsis CGS gene as previously described in Yael Hacham et al., Plant Physiol., February 2002, 128(2): 454-462. In order to test the effect of the small molecule inhibitors on the CGS and methionine pathway, growth curves of the E. coli in M9 minimal media with […] were measured with and without the addition of external methionine (40 mg/L) in the presence of variable compound concentrations. E. coli growth curves were measured by following the optical density at 600 nm of bacteria in 96 well-plate placed within Tecan M200 plate reader in orbital shaking mode at 37° C. The slope of each curve was estimated using the ‘linest’ function in Excel.
# Tobacco CGS = molecular target: T1, Tobacco CGS (Nicotiana tabacum, UniProt Q9ZPL5); test: Micro Scale Thermophoresis (MST) direct binding to CGS; design: 6xHIS (N, cleaved yes); GB1 solubility tag (N, cleaved yes); made in house; host or cells: E. coli BL21; conditions: score 0-5; binding to labelled Tobacco CGS
# T1 sequence (Q9ZPL5 79-540): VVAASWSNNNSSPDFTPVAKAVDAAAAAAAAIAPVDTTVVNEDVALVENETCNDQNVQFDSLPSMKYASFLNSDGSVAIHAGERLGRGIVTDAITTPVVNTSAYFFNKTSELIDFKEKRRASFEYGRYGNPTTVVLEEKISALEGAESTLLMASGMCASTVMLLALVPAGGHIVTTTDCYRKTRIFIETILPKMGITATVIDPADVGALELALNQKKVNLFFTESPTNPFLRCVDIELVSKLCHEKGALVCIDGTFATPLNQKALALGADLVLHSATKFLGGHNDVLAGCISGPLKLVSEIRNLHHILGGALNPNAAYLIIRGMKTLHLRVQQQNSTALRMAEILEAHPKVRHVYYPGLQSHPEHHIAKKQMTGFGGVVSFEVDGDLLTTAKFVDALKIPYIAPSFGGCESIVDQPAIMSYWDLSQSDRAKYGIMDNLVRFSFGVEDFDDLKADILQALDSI
# Protocol: The direct binding of the compounds of the embodiments to the CGS was tested by Micro Scale Thermophoresis (MST). In the MST assay, the CGS protein was labelled with a fluorophore, the samples were heated, and changes in fluorescence were measured as a function of the ligand concentration. In the MST assay, similar to the expression and purification described above, the recombinant Tobacco CGS protein was expressed in E. coli BL21 cells and purified to homogeneity. For that particular purpose, the pET-11 vector containing the DNA sequence of Tobacco CGS with an N-terminus […] tag followed by a TEV-cleavable GB1 solubility tag was cloned and transformed into the bacteria cells. Cells were cultured to OD=0.8, and protein expression was induced by the addition of 1 mM IPTG. The cells were cultured for additional 16 hours temperature 25° C. Following cellular lysis, the soluble fraction was passed through the nickel column and the bound HIS-tagged protein was eluted by 300 mM imidazole. Then, the tags […] and GB1 were cleaved in dialysis o/n and the mixtures passed again through the nickel column to separate the CGS from the TEV and HIS-GB1 constructs. As a final step the CGS was run on S75 size exclusion chromatography. Thus, the MST assay was performed to measure the biding of the compounds to the CGS protein. For this purpose, the CGS was labelled with commercially available amine reactive fluorophore (Cat # MO-[…], NanoTemper) according to the manufacture instructions. The MST binding curves were then measured using the Monolith NT.115 apparatus by incubating the labelled protein with the indicated compounds in a dose-response manner.
Structure (SMILES),activity at 50 µM (Arabidopsis thaliana),TEV (relative to DMSO) (TEV (relative to DMSO)),Roquette assay spray (single average) (Roquette),Roquette assay spray (twice average) (Roquette),E. coli Assay LE395 (0-5) [1],E. coli specificity (MOA) [1],MST Tobacco (0-5) (Tobacco CGS)
O=C(O)C1CN(C(=O)c2cc(-c3ccccc3Cl)on2)c2ccccc21 (stereo not drawn) [IML-167],0%,0.31,1.3,3.5,–,–,–
COc1ccnc(C(=O)Nc2cccc(-c3nc(C)cc(=O)[nH]3)c2)c1 [IML-62],–,–,–,–,3,5,4
COc1cccc(C(=O)Nc2cccc(-c3cc(C(F)(F)F)[nH]n3)c2)c1 [IML-70],–,–,–,–,3,5,–
O=C(O)CC1CN(C(=O)c2cc(-c3ccccc3)on2)c2ccccc21 (stereo not drawn) [IML-164],4%,0.11,3.0,3.0,–,–,–
O=C(c1cc(-c2ccccc2)on1)N1CCc2cc([N+](=O)[O-])ccc21 [IML-161],–,0.14,–,–,–,–,–
COc1cccc(C(=O)Nc2cccc(-c3nc(C)cc(=O)[nH]3)c2)c1 [IML-11],–,–,–,–,3,4,3
COc1cccc(Nc2nc(-c3cccc(N4C(=O)c5ccccc5C4=O)c3)cs2)c1 [IML-218],–,–,–,–,3,5,–
CCc1ccc(C(=O)Nc2cccc(-c3nc(C)cc(=O)[nH]3)c2)cc1 [IML-24],35%,–,–,2.0,–,–,–
O=C(O)C1CN(C(=O)c2cnn(-c3ccccc3)c2)c2ccccc21 (stereo not drawn) [IML-162],38%,0.20,2.0,–,3,5,–
COc1cccc(-c2cc(C(=O)N3CC(C(=O)O)c4ccccc43)no2)c1 (stereo not drawn) [IML-166],0%,0.06,2.0,4.0,–,–,–
CCc1ccccc1NC(=O)CN(C)C(=O)c1ccc2nc[nH]c2c1 [IML-113],–,–,–,–,–,–,5
Cc1cc(=O)[nH]c(-c2ccc(NC(=O)c3c(O)cccc3F)cc2)n1 [IML-15],–,–,–,–,3,4,1
O=C(O)C1CN(C(=O)c2cc(-c3cccnc3)on2)c2ccccc21 (stereo not drawn) [IML-180],58%,0.25,–,–,1,5,3
O=C(O)C1Cc2ccccc2N1C(=O)c1cc(-c2ccccc2)on1 (stereo not drawn) [IML-163],0%,0.31,–,4.0,4,5,–
CCc1ccccc1NC(=O)CNC(=O)c1ccc2c(c1)nnn2CC [IML-112],–,–,–,–,–,–,4
O=C(CNC(=O)c1ccc2[nH]ncc2c1)Nc1ccccc1 [IML-134],67%,–,–,–,3,4,3
COc1cccc(-c2cc(C(=O)N3C[C@H](C(=O)O)c4ccccc43)no2)c1 [IML-238],3%,0.29,–,2.0,–,–,–

Structure (SMILES),activity at 50 µM (Arabidopsis thaliana),TEV (relative to DMSO) (TEV (relative to DMSO)),Roquette assay spray (single average) (Roquette),Roquette assay spray (twice average) (Roquette),E. coli Assay LE395 (0-5) [1],E. coli specificity (MOA) [1],MST Tobacco (0-5) (Tobacco CGS)
O=C(O)C1CN(C(=O)c2cc(-c3ccccc3)on2)c2ccccc21 (stereo not drawn) [IML-124],0%,0.30,–,3.0,2,5,–
CCc1ccccc1NC(=O)CNC(=O)c1ccc2nn[nH]c2c1 [IML-102],–,–,–,–,–,–,5
O=C(Nc1cccc(-c2cn(Cc3ccccc3)nn2)c1)c1cc(C(F)(F)F)ccn1 [IML-223],–,–,–,–,5,5,–
COc1ccc(Cc2nc(-c3cccc(NC(=O)c4ccccc4F)c3)no2)cc1 [IML-217],–,–,–,–,3,5,2
Cc1cc(=O)[nH]c(-c2cccc(NC(=O)c3ccccc3OC(F)F)c2)n1 [IML-22],–,–,–,–,2,4,3
CC(=O)Nc1cccc(NC(=O)CNC(=O)c2ccc3nn[nH]c3c2)c1 [IML-110],–,–,–,–,2,4,5
Cc1c(Cl)cccc1Nc1nc(-c2cccc(NC(=O)c3ccccc3)c2)cs1 [IML-211],–,–,–,–,4,–,–
O=C(O)C1CN(C(=O)c2cc(-c3cccc(Cl)c3)on2)c2ccccc21 (stereo not drawn) [IML-181],0%,0.22,0.5,–,–,–,–
Cc1cc(=O)[nH]c(-c2cccc(NC(=O)c3ccc(O)cc3F)c2)n1 [IML-14],–,–,–,–,3,4,3
O=C(c1ccc2[nH]ncc2c1)N1CCC(Nc2ccccc2)C1 (stereo not drawn) [IML-204],35%,–,–,–,–,–,–
CCc1nc(-c2cncc(NC(=O)c3cccc(Cl)c3)c2)no1 [IML-234],–,0.75,1.5,3.0,–,–,–
COc1cccc(C(=O)Nc2cccc(-n3cc(C)nc3O)c2)c1 [IML-67],–,–,–,–,3,4,–
O=C(O)C1CN(C(=O)c2cc(-c3ccccc3)[nH]n2)c2ccccc21 (stereo not drawn) [IML-125],45%,–,–,–,–,–,–
O=C(O)C1CN(C(=O)c2ccn(-c3ccccc3)n2)c2ccccc21 (stereo not drawn) [IML-121],9%,0.28,3.0,4.0,2,4,–
O=C(c1ccc2[nH]ncc2c1)N1CCCC(Nc2ccccc2)C1 (stereo not drawn) [IML-203],50%,–,–,–,–,–,–
O=C(Nc1cccc(-c2cn(Cc3ccccc3)nn2)c1)c1cccc(Cl)c1 [IML-232],68%,–,1.0,4.0,–,–,–
Cc1ccc(C(=O)Nc2cccc(-c3nc(C)cc(O)n3)c2)nc1 [IML-66],–,–,–,–,3,4,3

# — US11639345B2, “Methionine metabolic pathway inhibitors” (MIGAL—GALILEE RESEARCH INSTITUTE LTD., priority 2018, dated 2023)
